# Experimental data reported in patent US11465980B2, “6-membered aza-heterocyclic containing delta-opioid receptor modulating compounds, methods of using and making the same” (Trevena, Inc., priority 2015, dated 2022).
# Assays:
# rat [1] = assay: Tactile allodynia produced by nitroglycerin (migraine model, rat); type: in vivo; conditions: route sc, nitroglycerin 10 mg/kg ip, p < 0.05 vs vehicle
# mouse [2] = assay: Tactile allodynia produced by intraplantar Freund's Complete Adjuvant, von Frey (mouse); type: in vivo; conditions: route po, p < 0.05 vs vehicle
# Method: (§1) Animals were acclimated to the vivarium for at least 48 hr prior to behavioral testing. Inflammation was induced for both rodent species with the administration of an intraplantar (subcutaneous injection into the plantar surface of the hind paw, i.pl.) injection of 0.10 ml Freund's Complete Adjuvant (FCA).
# For mouse studies, the experiments were conducted 48 hours after FCA administration. Tactile allodynia was measured using a series of von Frey monofilaments. These filaments are bendable, plastic and intended to poke, not penetrate, the skin. Animals were placed in a Plexiglas chamber (approximately 10 cm×20 cm×25 cm) and allowed to habituate for 5-10 minutes. The chamber was positioned on top of a mesh screen so that von Frey monofilaments can be presented to the plantar surface of the hind paw that is inflamed. The measurement of tactile sensitivity for the injected hind paw is obtained using the up/down method (LaBuda and Little, 2005, J Neurosci. Methods, 144, 175) with […]. Each trial will start with a von Frey force of 0.6 grams delivered to the hind paw for approximately 1-2 seconds. If there was no withdrawal response, the next higher force was be delivered. If there was a response, the next lower force was delivered. This procedure was performed until no response was made at the highest force (2 grams) or until four stimuli are administered following the initial response. The 50% paw withdrawal threshold for the hind paw was be calculated using the following formula: [Xth]log=[vFi]log+ky where [vFr] is the force of the last von Frey used, k is the average interval (in log units) between the von Frey monofilaments, and y is a value that depends upon the pattern of withdrawal responses (Dixon, Annual Review Pharmacol Toxicol, 1980, 20, 441).
# rat [3] = assay: Hemilesioned rat 6-OHDA model (bar, drag, rotarod tests); type: in vivo; conditions: route sc, p < 0.05 vs vehicle
# Method: Compounds were tested for efficacy in reversing akinesia and bradykinesia in two well accepted rodent Parkinson's disease (PD) models; the haloperidol-induced rat catalepsy and 6-OHDA rat hemiparkinson lesion models.
# In the hemilesioned rat 6-OHDA model, the effect of compound on the akinetic response to lesioning of the contralateral forepaw in the bar test and stepping activity as measured by the drag test were determined. […] This assay examines efficacy for reversing PD motor symptoms (i.e. akinesia/bradykinesia and gait abilities). The behavioral readouts will include immobility time in the bar test (akinesia), number of steps in the drag test (akinesia/bradykinesia) and time spent on rod in the rotarod test (overall gait ability, gross motor behavior). Compounds were administered subcutaneously and efficacy was evaluated between 30 and 90 min post dose.
# mouse [4] = assay: Tactile allodynia produced by nitroglycerin (migraine model, mouse); type: in vivo; conditions: route sc, nitroglycerin 10 mg/kg ip, p < 0.05 vs vehicle, read-out: Active Migraine Doses
# Method: Compounds were tested for efficacy in rodent models of nitroglycerine induced migraine. In this model both rats and mice can be induced to have a behavioral response consistent with the progression of a migraine attack by the intraperitoneal injection of nitroglycerin. In this test mice or rats (n=8/group) are given an intraperitoneal injection of nitroglycerin at 10 mg/kg. After 90 minutes the animals are subcutaneously dosed with test compound. A measurement of mechanical allodynia will be obtained using the up/down method with seven von Frey monofilaments. There is a specific series used for rat and mouse. Each monofilament is delivered to the hind paw for approximately 1-2 seconds. If there is a response, the next lower force will be delivered. This procedure will be performed until no response was made at the highest force or until four stimuli are administered following the initial response. The 50% paw withdrawal threshold for the hind paw will be calculated using the following formula: [Xth]log=[vFr]log+ky where [vFr] is the force of the last von Frey used, k is the average interval (in log units) between the von Frey monofilaments, and y is a value that depends upon the pattern of withdrawal responses. Testing for tactile sensitivity will be performed and a withdrawal value will be assigned as the tactile sensitivity (expressed in grams of force required to elicit a response) for the injected paw for each animal. Data is presented as the mean grams required to produce a hind paw withdrawal from the von Frey stimulus. […] Compounds found to be effective in this model of migraine at the doses indicated, although other doses may also be active. Other compounds described herein were not necessarily tested, but are expected to be able have some level of efficacy.
# adult male C57 mice = assay: Tail suspension test (TST); type: in vivo, mouse; conditions: Mus musculus; route sc, po; p < 0.05 compared to vehicle-treated mice; read-out: Active TST Dose
# Method: The experiments were performed using adult male C57 mice (6-10 weeks of age, 20-30 g, Hilltop Lab, PA). The mice were housed in standard rodent cages with stainless steel mesh wire bar lids in groups of 4 with controlled temperature and light cycle (6:00 a.m.-6:00 p.m.). Animals were given free access to food (Harlan Teklad Global 18% protein (Madison, Wis.)) and water during a minimum 2-day habituation period to the laboratory. Animals that were used in the study were handled, housed, and sacrificed (using compressed CO2) in accord with the current NIH guidelines regarding the use and care of laboratory animals, and all applicable local, state, and federal regulations and guidelines. Animals are identified by cage number, and by markings applied to the proximal tip of the tail using a permanent marker. Group sizes (n=8, and therefore 30-50 animals per study) provide reliable estimates of treatment effects, and this species and strain of mouse has been recognized as appropriate for pharmacology studies.
# To measure efficacy of the compounds the compounds were tested using a tail suspension test. The tail suspension test is a behavioral test used to evaluate the efficacy of antidepressant drugs in rodents. In the TST, mice (n=8/group) were suspended by the tail with tape approximately 30-50 cm above the lab bench. Mice are positioned such that the base of their tail is perpendicular to the lab bench. Each mouse is given 1 trial that last 6 minutes. The total duration of immobility is calculated as the percentage of time that the mouse is immobile. The duration of immobility is the main parameter measured. This is calculated from the cumulated time during which the animals is absent of initiated movements including passive swaying. When antidepressant drugs are administered, immobility is decreased by a variety of classes of antidepressant drugs. One or more of the compounds show antidepressant activity.
# rat [5] = assay: Mechanical allodynia after Freund's Complete Adjuvant, Randall-Selitto (rat); type: in vivo; conditions: route sc, p < 0.05 vs vehicle
# Method: as §1
# For rat studies, the experiments were conducted 24 hours after CFA administration. Rats are tested for mechanical allodynia in a Randall-Selitto apparatus. The inflamed paw is put on a pedestal and a pointed force of increasing intensity (0 to 250 grams) is applied to the paw. When the animal struggles to withdraw from the force the test is stopped and the force to induce that struggle is recorded. Data may be presented as mean grams of force to withdrawal or a percentage of the maximum possible effect.
smiles,measurement,setting,value
"COc1ccc([C@@H]2CCN(CCc3ccccc3)[C@H](C)[C@H]2COc2ccc3c(c2)C(=O)NC3)cc1 [Compound B0707, (−)-6-{[(trans, trans)-4-(4-methoxyphenyl)-2-methyl-1-(2-phenylethy)piperidin-3-yl]methoxy}-2,3-dihydro-1H-isoindol-1-one]",Active Migraine Doses,rat [1],≤10 mg/kg
same,Active CFA Dose,mouse [2],≤30 mg/kg
same,Active Dose (hemilesioned rat 6-OHDA model),rat [3],≤30 mg/kg
same,minimal effective dose,mouse [4],≤ 10 mg/kg
same,minimal effective dose,adult male C57 mice,≤ 30 mg/kg
same,Active CFA Dose,rat [5],≤10 mg/kg
